Data published in PubChem BioAssay AID330 (DTP/NCI, 2004).
Inconclusive results and toxic doses are left out.

Test system: P388 leukemia ip, CD2F1 mice, survival T/C
Test: NCI In Vivo Anticancer Drug Screen. Data for tumor model P388 Leukemia (intraperitoneal) in CD2F1 (CDF1) mice
Details: endpoint: median survival time, higher = longer survival
Summary of the method: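 Mice carrying the transplanted tumor received test compound or vehicle. Survival was recorded in each group, and the value is the treated-group measurement divided by that of the vehicle-treated control group.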

[1] = dose: 50.0 mg/kg/injection, schedule: Q01DX009 (ip), vehicle: saline with Tween-80
[2] = dose: 100.0 mg/kg/injection, schedule: Q01DX009 (ip), vehicle: saline with Tween-80
[3] = dose: 60.0 mg/kg/injection, schedule: Q01DX005 (ip), vehicle: saline with Tween-80
[4] = dose: 120.0 mg/kg/injection, schedule: Q01DX005 (ip), vehicle: saline with Tween-80
[5] = dose: 240.0 mg/kg/injection, schedule: Q01DX005 (ip), vehicle: saline with Tween-80
[6] = dose: 50.0 mg/kg/injection, schedule: Q01DX009 (ip), vehicle: Klucel (hydroxypropylcellulose) (HPC)
[7] = dose: 100.0 mg/kg/injection, schedule: Q01DX009 (ip), vehicle: Klucel (hydroxypropylcellulose) (HPC)
[8] = dose: 200.0 mg/kg/injection, schedule: Q01DX009 (ip), vehicle: Klucel (hydroxypropylcellulose) (HPC)
[9] = dose: 400.0 mg/kg/injection, schedule: Q01DX009 (ip), vehicle: Klucel (hydroxypropylcellulose) (HPC)
[10] = dose: 200.0 mg/kg/injection, schedule: Q04DX003 (ip), vehicle: saline with Tween-80
[11] = dose: 50.0 mg/kg/injection, schedule: Q01DX005 (ip), vehicle: saline
[12] = dose: 100.0 mg/kg/injection, schedule: Q01DX005 (ip), vehicle: saline
[13] = dose: 200.0 mg/kg/injection, schedule: Q01DX001 (ip), vehicle: Klucel (hydroxypropylcellulose) (HPC)
[14] = dose: 25.0 mg/kg/injection, schedule: Q01DX009 (ip), vehicle: saline with Tween-80
[15] = dose: 50.0 mg/kg/injection, schedule: Q01DX005 (ip), vehicle: Klucel (hydroxypropylcellulose) (HPC)
[16] = dose: 100.0 mg/kg/injection, schedule: Q01DX005 (ip), vehicle: Klucel (hydroxypropylcellulose) (HPC)
[17] = dose: 200.0 mg/kg/injection, schedule: Q01DX005 (ip), vehicle: Klucel (hydroxypropylcellulose) (HPC)
[18] = dose: 50.0 mg/kg/injection, schedule: Q01DX009 (ip), vehicle: saline
[19] = dose: 100.0 mg/kg/injection, schedule: Q01DX009 (ip), vehicle: saline
[20] = dose: 60.0 mg/kg/injection, schedule: Q01DX005 (ip), vehicle: Klucel (hydroxypropylcellulose) (HPC)
[21] = dose: 120.0 mg/kg/injection, schedule: Q01DX005 (ip), vehicle: Klucel (hydroxypropylcellulose) (HPC)
[22] = dose: 240.0 mg/kg/injection, schedule: Q01DX005 (ip), vehicle: Klucel (hydroxypropylcellulose) (HPC)

C(=P(c1ccccc1)(c1ccccc1)c1ccccc1)[P+](c1ccccc1)(c1ccccc1)c1ccccc1
T/C (dose: 3.12 mg/kg/injection, schedule: Q01DX009 (ip), vehicle: saline): 111 % of control
T/C (dose: 3.12 mg/kg/injection, schedule: Q01DX009 (ip), vehicle: suspension in saline): 111 % of control
T/C (dose: 6.25 mg/kg/injection, schedule: Q01DX009 (ip), vehicle: saline): 104 % of control
T/C (dose: 6.25 mg/kg/injection, schedule: Q01DX009 (ip), vehicle: suspension in saline): 112 % of control
T/C (dose: 12.5 mg/kg/injection, schedule: Q01DX009 (ip), vehicle: suspension in saline): 119 % of control

CCCC#CC(=O)OC
T/C [1]: 97 % of control
T/C [2]: 100 % of control
T/C (dose: 200.0 mg/kg/injection, schedule: Q01DX009 (ip), vehicle: saline with Tween-80): 106 % of control

COC(=O)C1=NOC(Cc2ccccc2)C1 (stereo unspecified)
T/C [3]: 100 % of control
T/C [4]: 114 % of control
T/C [5]: 96 % of control

Nc1ccc2ccccc2c1N=Nc1ccccc1
T/C [6]: 117 % of control
T/C [7]: 118 % of control
T/C [8]: 120 % of control
T/C [9]: 117 % of control

O=c1oc(-c2cccc(C(Cl)Cl)c2)ns1
T/C [7]: 112 % of control
T/C [8]: 107 % of control
T/C [9]: 105 % of control

O=C(N/N=C/c1ccc(Cl)cc1)c1cc2ccccc2oc1=O
T/C (dose: 100.0 mg/kg/injection, schedule: Q01DX001 (ip), vehicle: saline): 100 % of control
T/C (dose: 200.0 mg/kg/injection, schedule: Q01DX001 (ip), vehicle: saline): 103 % of control
T/C (dose: 400.0 mg/kg/injection, schedule: Q01DX001 (ip), vehicle: saline): 105 % of control

CSC1(CCC#N)C(=O)Nc2ccccc21 (stereo unspecified)
T/C [10]: 102 % of control
T/C (dose: 400.0 mg/kg/injection, schedule: Q04DX003 (ip), vehicle: saline with Tween-80): 108 % of control

CCCNC1(N(C)C)N=C(N(C)C)N=C(N(C)C)O1 (stereo unspecified)
T/C [11]: 102 % of control
T/C [12]: 95 % of control

O=C(O)C(Cl)Cc1cnc[nH]1 (stereo unspecified)
T/C (dose: 100.0 mg/kg/injection, schedule: Q04DX003 (ip), vehicle: saline): 103 % of control
T/C (dose: 200.0 mg/kg/injection, schedule: Q04DX003 (ip), vehicle: saline): 91 % of control
T/C (dose: 400.0 mg/kg/injection, schedule: Q04DX003 (ip), vehicle: saline): 91 % of control

CCCCCCC1(C(=O)OCCN(CC)CC)CCCCC1
T/C (dose: 50.0 mg/kg/injection, schedule: Q01DX005 (ip), vehicle: saline with Tween-80): 101 % of control
T/C (dose: 100.0 mg/kg/injection, schedule: Q01DX005 (ip), vehicle: saline with Tween-80): 105 % of control

O=c1cc(-c2ccc(OCc3ccccc3)c(-c3c(OCc4ccccc4)cc(OCc4ccccc4)c4c(=O)cc(-c5ccc(OCc6ccccc6)cc5)oc34)c2)oc2cc(OCc3ccccc3)cc(OCc3ccccc3)c12
T/C (dose: 25.0 mg/kg/injection, schedule: Q01DX001 (ip), vehicle: saline with Tween-80): 93 % of control
T/C (dose: 50.0 mg/kg/injection, schedule: Q01DX001 (ip), vehicle: saline with Tween-80): 89 % of control
T/C (dose: 100.0 mg/kg/injection, schedule: Q01DX001 (ip), vehicle: saline with Tween-80): 87 % of control
T/C [13]: 89 % of control
T/C (dose: 400.0 mg/kg/injection, schedule: Q01DX001 (ip), vehicle: Klucel (hydroxypropylcellulose) (HPC)): 88 % of control

O=C(O)c1cnc2cc(Cl)ccc2n1
T/C [14]: 100 % of control
T/C [1]: 100 % of control
T/C [2]: 95 % of control

Cc1cc(N/N=C/c2ccc([N+](=O)[O-])o2)c2cc3c(cc2n1)OCO3
T/C [15]: 91 % of control
T/C [16]: 98 % of control
T/C [17]: 96 % of control

O=C1C(C(=Nc2ccc(Cl)cc2)c2ccccc2)=C(O)c2ccccc21
T/C (dose: 25.0 mg/kg/injection, schedule: Q04DX002 (ip), vehicle: saline with Tween-80): 95 % of control
T/C (dose: 50.0 mg/kg/injection, schedule: Q04DX002 (ip), vehicle: saline with Tween-80): 95 % of control
T/C (dose: 100.0 mg/kg/injection, schedule: Q04DX002 (ip), vehicle: saline with Tween-80): 95 % of control

O=C1C(c2ccccc2)=C(c2ccccc2)/C1=C/c1ccc(F)cc1
T/C (dose: 50.0 mg/kg/injection, schedule: Q01DX001 (ip), vehicle: Klucel (hydroxypropylcellulose) (HPC)): 112 % of control
T/C (dose: 100.0 mg/kg/injection, schedule: Q01DX001 (ip), vehicle: Klucel (hydroxypropylcellulose) (HPC)): 106 % of control
T/C [13]: 118 % of control

COc1ccc(/C=C/c2ccnnc2)c(OC)c1OC
T/C (dose: 25.0 mg/kg/injection, schedule: Q01DX009 (ip), vehicle: saline): 102 % of control
T/C [18]: 102 % of control
T/C [19]: 105 % of control

CC(=O)CC(C)O (stereo unspecified)
T/C [18]: 99 % of control
T/C [19]: 89 % of control
T/C (dose: 200.0 mg/kg/injection, schedule: Q01DX009 (ip), vehicle: saline): 92 % of control

COc1ccc(Cl)c2c1C(=O)C1C(=O)C3C(O)=C(C(=O)NC(C)(C)C)C(=O)C(NC(=O)c4ccccc4)C3CC1C2 (stereo unspecified)
T/C [20]: 97 % of control
T/C [21]: 116 % of control
T/C [22]: 190 % of control

COC(=O)C1=COC(C)C2CN3CCC4(C(=O)Nc5ccccc54)C3CC12 (stereo unspecified)
T/C [3]: 101 % of control
T/C [4]: 101 % of control

CN1C(=O)Cc2ccccc21
T/C (dose: 25.0 mg/kg/injection, schedule: Q01DX009 (ip), vehicle: Klucel (hydroxypropylcellulose) (HPC)): 99 % of control
T/C [6]: 101 % of control
T/C [7]: 105 % of control
T/C [8]: 99 % of control

C(=C/c1cc2ccc(C3=NCCN3)cc2o1)/c1cc2cc(C3=NCCN3)ccc2[nH]1
T/C (dose: 200.0 mg/kg/injection, schedule: Q04DX003 (ip), vehicle: suspension in saline): 113 % of control

O=C1OC2(c3ccccc31)c1cc(I)c(O)c(I)c1Oc1c2cc(I)c(O)c1I
T/C (dose: 100.0 mg/kg/injection, schedule: Q04DX003 (ip), vehicle: saline with Tween-80): 91 % of control
T/C [10]: 95 % of control

CCOC(=O)C1=C(N)OC(c2ccccc2)=C(C#N)C1c1ccccc1Cl (stereo unspecified)
T/C [15]: 101 % of control
T/C [16]: 113 % of control
T/C [17]: 97 % of control

Cc1ccc(S(=O)(=O)N(CCC(c2ccccc2)c2ccccc2)S(=O)(=O)c2ccc(C)cc2)cc1
T/C [14]: 102 % of control
T/C [1]: 98 % of control
T/C [2]: 100 % of control

CC(C)(C)C1=CS(=O)(=O)C1
T/C (dose: 1.56 mg/kg/injection, schedule: Q01DX001 (ip), vehicle: saline with Tween-80): 103 % of control
T/C (dose: 3.12 mg/kg/injection, schedule: Q01DX001 (ip), vehicle: saline with Tween-80): 102 % of control

Nc1nnc(-c2ccc(Br)cc2)o1
T/C [3]: 106 % of control
T/C [4]: 109 % of control
T/C [5]: 114 % of control

Cc1cc(C(C#N)c2ccc(Cl)cc2)c(Cl)cc1NC(=O)c1cc(I)cc(I)c1O (stereo unspecified)
T/C (dose: 6.25 mg/kg/injection, schedule: Q01DX005 (ip), vehicle: saline with Tween-80): 102 % of control
T/C (dose: 12.5 mg/kg/injection, schedule: Q01DX005 (ip), vehicle: saline with Tween-80): 94 % of control
T/C (dose: 25.0 mg/kg/injection, schedule: Q01DX005 (ip), vehicle: saline with Tween-80): 88 % of control

CCCCCCCCCCCCC(O)CCC1CCCCN1 (stereo unspecified)
T/C [11]: 102 % of control
T/C [12]: 105 % of control

CC12CC3CC(C)(C1)CC(OCCN)(C3)C2
T/C [3]: 101 % of control
T/C [4]: 104 % of control

CCOC(=O)c1cc(=O)c2c(OC)ccc(Cl)c2[nH]1
T/C [20]: 100 % of control
T/C [21]: 99 % of control
T/C [22]: 96 % of control
